{"source": "patent US11999732B2", "about": "“P2X3 receptor antagonists” (RECORDATI INDUSTRIA CHIMICA E FARMACEUTICA SPA, priority 2018, dated 2024)", "data": [{"target": "T1, human P2X3 receptor (Homo sapiens, UniProt P56373)", "T1 construct": "expressed in transfected cells; host or cells: CHO-K1", "T1 sequence (P56373 1-397)": "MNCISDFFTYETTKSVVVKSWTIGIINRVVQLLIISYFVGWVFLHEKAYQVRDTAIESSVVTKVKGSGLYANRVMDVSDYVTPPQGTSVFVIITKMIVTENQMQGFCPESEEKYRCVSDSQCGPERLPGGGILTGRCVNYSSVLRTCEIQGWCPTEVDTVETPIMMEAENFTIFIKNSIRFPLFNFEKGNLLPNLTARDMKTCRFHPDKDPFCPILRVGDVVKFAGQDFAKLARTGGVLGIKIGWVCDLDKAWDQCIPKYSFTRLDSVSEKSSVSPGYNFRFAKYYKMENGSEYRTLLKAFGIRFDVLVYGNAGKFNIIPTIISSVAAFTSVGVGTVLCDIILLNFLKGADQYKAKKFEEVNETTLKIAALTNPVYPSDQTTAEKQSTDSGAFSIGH", "assay": "Calcium luminescence (photoprotein) assay in CHO-K1 cells co-expressing human P2X3 receptor, α,β-Met-ATP stimulation, FLEXSTATION readout", "format": "cell-based", "settings": "Table 6; human P2X3 receptor antagonist activity, CHO-K1 cells, α,β-Met-ATP; read-out: h-P2X3 IC50", "procedure,_shortened": "(§1)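 CHO-K1 cells co-expressing human P2X3 and a Ca2+-sensitive photoprotein, loaded with coelenterazine in Tyrode's buffer (pH 7.4) for 4 h at 37 °C. Compounds injected 4 min before α,β-Met-ATP stimulation; luminescence recorded, IC50 and pseudo-Hill slope from nonlinear regression of inhibition curves.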", "units": {"IC50": "nM"}, "values": [{"smiles": "COc1cc(CN2C(=O)N3CC(C(C)C)N=C3c3ncc(C(=O)NC4CCOCC4)cc32)cc(OC)c1", "note": "(stereo not drawn) [Example 58, 6-(3,5-dimethoxybenzyl)-5-oxo-2-(propan-2-yl)-n-(tetrahydro-2H-pyran-4-yl)-2,3,5,6-tetrahydroimidazo[1,2-c]pyrido[2,3-e]pyrimidine-8-carboxamide]", "IC50": 9200}, {"smiles": "COc1cc(CN2C(=O)N3CC(C(C)C)N=C3c3ncc(C(=O)N4CCOCC4)cc32)cc(OC)c1", "note": "(stereo not drawn) [Example 60, 6-(3,5-dimethoxybenzyl)-8-(morpholin-4-ylcarbonyl)-2-(propan-2-yl)-2,6-dihydroimidazo[1,2-c]pyrido[2,3-e]pyrimidin-5(3H)-one]", "IC50": 1100}, {"smiles": "O=C1N2CC(CC3CCCCC3)N=C2c2ncc(N3CCOCC3)cc2N1Cc1ccc(Cl)cc1", "note": "(stereo not drawn) [Example 61, 6-(4-chlorobenzyl)-2-(cyclohexylmethyl)-8-(morpholin-4-yl)-2,6-dihydroimidazo[1,2-c]pyrido[2,3-e]pyrimidin-5(3H)-one]", "IC50": 1080}, {"smiles": "CC(C)CCC1CN2C(=O)N(Cc3ccc(Cl)cc3)c3cc(N4CCOCC4)cnc3C2=N1", "note": "(stereo not drawn) [Example 62, 6-(4-chlorobenzyl)-2-(3-methylbutyl)-8-(morpholin-4-yl)-2,6-dihydroimidazo[1,2-c]pyrido[2,3-e]pyrimidin-5(3H)-one]", "IC50": 720}, {"smiles": "CC(C)CCC1CN=C2c3ncc(N4CCOCC4)cc3N(Cc3ccc(Cl)cc3)C(=O)N21", "note": "(stereo not drawn) [Example 63, 6-(4-chlorobenzyl)-3-(3-methylbutyl)-8-(morpholin-4-yl)-2,6-dihydroimidazo[1,2-c]pyrido[2,3-e]pyrimidin-5(3H)-one]", "IC50": 299}, {"smiles": "CC(C)CC1C(=O)N=C2c3ncc(N4CCOCC4)cc3N(Cc3ccc(Cl)cc3)C(=O)N21", "note": "(stereo not drawn) [Example 64, 6-(4-chlorobenzyl)-3-(2-methylpropyl)-8-(morpholin-4-yl)imidazo[1,2-c]pyrido[2,3-e]pyrimidine-2,5(3H,6H)-dione]", "IC50": 109}, {"smiles": "COCCC1CN2C(=O)N(Cc3ccc(OC)cc3)c3cc(N4CCOCC4)cnc3C2=N1", "note": "(stereo not drawn) [Example 65, 6-(4-methoxybenzyl)-2-(2-methoxyethyl)-8-(morpholin-4-yl)-2,6-dihydroimidazo[1,2-c]pyrido[2,3-e]pyrimidin-5(3H)-one]", "IC50": 1790}, {"smiles": "COCCC1CN=C2c3ncc(N4CCOCC4)cc3N(Cc3ccc(OC)cc3)C(=O)N21", "note": "(stereo not drawn) [Example 66, 6-(4-methoxybenzyl)-3-(2-methoxyethyl)-8-(morpholin-4-yl)-2,6-dihydroimidazo[1,2-c]pyrido[2,3-e]pyrimidin-5(3H)-one]", "IC50": 2280}, {"smiles": "COc1ccc(CN2C(=O)N3C(=NCC3COC(C)(C)C)c3ncc(N4CCOCC4)cc32)cc1", "note": "(stereo not drawn) [Example 67, 3-(tert-butoxymethyl)-6-(4-methoxybenzyl)-8-(morpholin-4-yl)-2,6-dihydroimidazo[1,2-c]pyrido[2,3-e]pyrimidin-5(3H)-one]", "IC50": 218}, {"smiles": "CC(C)(C)C1C(=O)N=C2c3ncc(N4CCOCC4)cc3N(Cc3ccc(Cl)cc3)C(=O)N21", "note": "(stereo not drawn) [Example 68, 3-tert-butyl-6-(4-chlorobenzyl)-8-(morpholin-4-yl)imidazo[1,2-c]pyrido[2,3-e]pyrimidine-2,5(3H,6H)-dione]", "IC50": 109}, {"smiles": "COc1ccc(CN2C(=O)N3C(=NC(=O)C3C(C)(C)C)c3ncc(N4CCOCC4)cc32)cc1", "note": "(stereo not drawn) [Example 69, 3-tert-butyl-6-(4-methoxybenzyl)-8-(morpholin-4-yl)imidazo[1,2-c]pyrido[2,3-e]pyrimidine-2,5(3H,6H)-dione]", "IC50": 98.3}]}, {"target": "T1, human P2X3 receptor", "assay": "Calcium luminescence (photoprotein) assay in CHO-K1 cells co-expressing human P2X3 receptor, α,β-Met-ATP stimulation, FLEXSTATION readout", "format": "cell-based", "settings": "Table 7; human P2X3 receptor antagonist activity, CHO-K1 cells, α,β-Met-ATP; read-out: h-P2X3 IC50", "procedure,_shortened": "as §1", "units": {"IC50": "nM"}, "values": [{"smiles": "COc1cc(Cn2c(=O)n3c(C)c(C)nc3c3ncc(NCC4COC4)cc32)cc(OC)c1", "note": "[Example 70, 6-(3,5-dimethoxybenzyl)-2,3-dimethyl-8-{[(oxetan-3-yl)methyl]amino}imidazo[1,2-c]pyrido[2,3-e]pyrimidin-5(6H)-one]", "IC50": 139}, {"smiles": "Cc1ccc(Cn2c(=O)n3cc(CC(C)C)nc3c3ncccc32)cc1", "note": "[Example 72, 6-(4-methylbenzyl)-2-(2-methylpropyl)imidazo[1,2-c]pyrido[2,3-e]pyrimidin-5(6H)-one]", "IC50": 1390}, {"smiles": "CC(C)Cc1cn2c(=O)n(Cc3ccc(Cl)cc3)c3cc(N4CC5(COC5)C4)cnc3c2n1", "note": "[Example 73, 6-(4-chlorobenzyl)-2-(2-methylpropyl)-8-(2-oxa-6-azaspiro[3.3]heptan-6-yl)imidazo[1,2-c]pyrido[2,3-e]pyrimidin-5(6H)-one]", "IC50": 917}, {"smiles": "COc1cc(Cn2c(=O)n3cc(CC(C)C)nc3c3ncc(N4CCOCC4)cc32)cc(OC)c1", "note": "[Example 74, 6-(3,5-dimethoxybenzyl)-2-(2-methylpropyl)-8-(morpholin-4-yl)imidazo[1,2-c]pyrido[2,3-e]pyrimidin-5(6H)-one]", "IC50": 416}, {"smiles": "CC(C)Cc1cn2c(=O)n(Cc3c(F)cc(Cl)cc3F)c3cc(N4CCOCC4)cnc3c2n1", "note": "[Example 75, 6-(4-chloro-2,6-difluorobenzyl)-2-(2-methylpropyl)-8-(morpholin-4-yl)imidazo[1,2-c]pyrido[2,3-e]pyrimidin-5(6H)-one]", "IC50": 3510}, {"smiles": "CCc1nc2c3ncc(NCC4COC4)cc3n(Cc3cc(OC)cc(OC)c3)c(=O)n2c1C", "note": "[Example 76, 6-(3,5-dimethoxybenzyl)-2-ethyl-3-methyl-8-{[(oxetan-3-yl)methyl]amino}imidazo[1,2-c]pyrido[2,3-e]pyrimidin-5(6H)-one]", "IC50": 381}, {"smiles": "CCc1c(C)nc2c3ncc(NCC4COC4)cc3n(Cc3cc(OC)cc(OC)c3)c(=O)n12", "note": "[Example 77, 6-(3,5-dimethoxybenzyl)-3-ethyl-2-methyl-8-{[(oxetan-3-yl)methyl]amino}imidazo[1,2-c]pyrido[2,3-e]pyrimidin-5(6H)-one]", "IC50": 239}, {"smiles": "COc1ccc(Cn2c(=O)n3cc(CC(C)C)nc3c3ncc(N4CCOCC4)cc32)cc1", "note": "[Example 78, 6-(4-methoxybenzyl)-2-(2-methylpropyl)-8-(morpholin-4-yl)imidazo[1,2-c]pyrido[2,3-e]pyrimidin-5(6H)-one]", "IC50": 631}, {"smiles": "COc1cc(Cn2c(=O)n3c(C)c(C(C)C)nc3c3ncc(N4CCOCC4)cc32)cc(OC)c1", "note": "[Example 79, 6-(3,5-dimethoxybenzyl)-3-methyl-8-(morpholin-4-yl)-2-(propan-2-yl)imidazo[1,2-c]pyrido[2,3-e]pyrimidin-5(6H)-one]", "IC50": 53.7}, {"smiles": "COc1cc(Cn2c(=O)n3cc(CC(C)C)nc3c3ncc(N4CCN(C(=O)CO)CC4)cc32)cc(OC)c1", "note": "[Example 80, 6-(3,5-dimethoxybenzyl)-8-[4-(hydroxyacetyl)piperazin-1-y1]-2-(2-methylpropyl)imidazo[1,2-c]pyrido[2,3-e]pyrimidin-5(6H)-one]", "IC50": 1530}, {"smiles": "COc1cc(Cn2c(=O)n3c(C)c(C)nc3c3ncc(N4CC5(COC5)C4)cc32)cc(OC)c1", "note": "[Example 81, 6-(3,5-dimethoxybenzyl)-2,3-dimethyl-8-(2-oxa-6-azaspiro[3.3]heptan-6-yl)imidazo[1,2-c]pyrido[2,3-e]pyrimidin-5(6H)-one]", "IC50": 269}, {"smiles": "COc1cc(Cn2c(=O)n3c(C)c(C)nc3c3ncc(N4CCOCC4)cc32)cc(OC)c1", "note": "[Example 82, 6-(3,5-dimethoxybenzyl)-2,3-dimethyl-8-(morpholin-4-yl)imidazo[1,2-c]pyrido[2,3-e]pyrimidin-5(6H)-one]", "IC50": 332}, {"smiles": "COc1cc(Cn2c(=O)n3c(C)c(C(C)C)nc3c3ncc(NCC4COC4)cc32)cc(OC)c1", "note": "[Example 83, 6-(3,5-dimethoxybenzyl)-3-methyl-8-[(oxetan-3-ylmethyl)amino]-2-(propan-2-yl)imidazo[1,2-c]pyrido[2,3-e]pyrimidin-5(6H)-one]", "IC50": 292}, {"smiles": "COc1cc(Cn2c(=O)n3c(C)c(C(C)C)nc3c3ncc(N4CCN(C(C)=O)CC4)cc32)cc(OC)c1", "note": "[Example 84, 8-(4-acetylpiperazin-1-yl)-6-(3,5-dimethoxybenzyl)-3-methyl-2-(propan-2-yl)imidazo[1,2-c]pyrido[2,3-e]pyrimidin-5(6H)-one]", "IC50": 259}, {"smiles": "COc1cc(Cn2c(=O)n3c(C)c(C)nc3c3ncc(N4CCC(OC)CC4)cc32)cc(OC)c1", "note": "[Example 85, 6-(3,5-dimethoxybenzyl)-8-(4-methoxypiperidin-1-yl)-2,3-dimethylimidazo[1,2-c]pyrido[2,3-e]pyrimidin-5(6H)-one]", "IC50": 1300}, {"smiles": "COc1cc(Cn2c(=O)n3c(C)c(C(C)C)nc3c3ncc(N4CCC(OC)CC4)cc32)cc(OC)c1", "note": "[Example 87, 6-(3,5-dimethoxybenzyl)-8-(4-methoxypiperidin-1-yl)-3-methyl-2-(propan-2-yl)imidazo[1,2-c]pyrido[2,3-e]pyrimidin-5(6H)-one]", "IC50": 444}, {"smiles": "COCC1CN(c2cnc3c(c2)n(Cc2cc(OC)cc(OC)c2)c(=O)n2c(C)c(C(C)C)nc32)C1", "note": "[Example 88, 6-(3,5-dimethoxybenzyl)-8-[3-(methoxymethyl)azetidin-1-y1]-3-methyl-2-(propan-2-yl)imidazo[1,2-c]pyrido[2,3-e]pyrimidin-5(6H)-one]", "IC50": 53.6}, {"smiles": "COc1ccc(Cn2c(=O)n3c(C)c(C(C)C)nc3c3ncc(N4CCOCC4)cc32)cc1", "note": "[Example 89, 6-(4-methoxybenzyl)-3-methyl-8-(morpholin-4-yl)-2-(propan-2-yl)imidazo[1,2-c]pyrido[2,3-e]pyrimidin-5(6H)-one]", "IC50": 575}, {"smiles": "Cc1c(C(C)C)nc2c3ncc(N4CCOCC4)cc3n(Cc3ccc(Cl)cc3)c(=O)n12", "note": "[Example 90]", "IC50": 332}]}]}
